Key:
[1] = molecular target: Phosphatidylinositol 4,5-bisphosphate 3-kinase catalytic subunit alpha isoform (Homo sapiens, UniProt P42336); test: Selectivity interaction (KinomeScan (DiscoverX)) EUB0000351a PIK3CA; conditions: at 1 µM
[2] = molecular target: cGMP-inhibited 3',5'-cyclic phosphodiesterase 3A (Homo sapiens, UniProt Q14432); test: Selectivity interaction (CEREP ligand profiling ) EUB0000351a PDE3A
[3] = molecular target: T1, Serine/threonine-protein kinase TAO3 (Homo sapiens) (UniProt Q9H2K8); test: Selectivity interaction (KinomeScan (DiscoverX)) EUB0000351a TAOK3; conditions: at 1 µM
T1 sequence (whole entry): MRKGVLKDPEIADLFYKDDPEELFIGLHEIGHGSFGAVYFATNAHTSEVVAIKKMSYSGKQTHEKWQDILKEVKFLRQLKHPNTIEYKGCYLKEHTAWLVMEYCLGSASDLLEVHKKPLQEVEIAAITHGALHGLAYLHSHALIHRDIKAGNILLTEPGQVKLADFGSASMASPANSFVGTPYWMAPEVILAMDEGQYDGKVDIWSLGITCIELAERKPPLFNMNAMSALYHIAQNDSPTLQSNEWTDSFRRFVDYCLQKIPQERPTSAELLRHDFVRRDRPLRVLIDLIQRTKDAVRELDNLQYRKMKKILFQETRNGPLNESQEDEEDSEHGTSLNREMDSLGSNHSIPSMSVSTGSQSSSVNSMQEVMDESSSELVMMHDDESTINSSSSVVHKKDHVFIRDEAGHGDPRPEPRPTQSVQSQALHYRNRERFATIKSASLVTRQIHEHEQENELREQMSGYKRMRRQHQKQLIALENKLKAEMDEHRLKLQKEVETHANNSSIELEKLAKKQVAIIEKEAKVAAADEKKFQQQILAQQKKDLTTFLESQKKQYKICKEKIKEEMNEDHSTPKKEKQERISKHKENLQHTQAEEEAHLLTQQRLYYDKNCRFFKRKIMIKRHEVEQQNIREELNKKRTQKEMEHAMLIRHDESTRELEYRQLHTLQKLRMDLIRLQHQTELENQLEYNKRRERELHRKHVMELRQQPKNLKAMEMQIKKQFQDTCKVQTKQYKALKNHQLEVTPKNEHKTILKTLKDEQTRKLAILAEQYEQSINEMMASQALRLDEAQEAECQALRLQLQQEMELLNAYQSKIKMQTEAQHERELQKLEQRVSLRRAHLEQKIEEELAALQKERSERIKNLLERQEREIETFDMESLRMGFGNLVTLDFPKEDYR

D(3) dopamine receptor = D(3) dopamine receptor (Homo sapiens, UniProt P35462); test: Selectivity interaction (GPCR panel (PDSP screen)) EUB0000351a DRD3; conditions: at 10 µM
[4] = molecular target: 5'-AMP-activated protein kinase catalytic subunit alpha-2 (Homo sapiens) (UniProt P54646); test: Selectivity interaction (KinomeScan (DiscoverX)) EUB0000351a PRKAA2; conditions: at 1 µM
[5] = molecular target: T2, Alpha-2C adrenergic receptor (Homo sapiens, UniProt P18825); test: Selectivity interaction (GPCR panel (PDSP screen)) EUB0000540a ADRA2C
T2 sequence (P18825 whole entry): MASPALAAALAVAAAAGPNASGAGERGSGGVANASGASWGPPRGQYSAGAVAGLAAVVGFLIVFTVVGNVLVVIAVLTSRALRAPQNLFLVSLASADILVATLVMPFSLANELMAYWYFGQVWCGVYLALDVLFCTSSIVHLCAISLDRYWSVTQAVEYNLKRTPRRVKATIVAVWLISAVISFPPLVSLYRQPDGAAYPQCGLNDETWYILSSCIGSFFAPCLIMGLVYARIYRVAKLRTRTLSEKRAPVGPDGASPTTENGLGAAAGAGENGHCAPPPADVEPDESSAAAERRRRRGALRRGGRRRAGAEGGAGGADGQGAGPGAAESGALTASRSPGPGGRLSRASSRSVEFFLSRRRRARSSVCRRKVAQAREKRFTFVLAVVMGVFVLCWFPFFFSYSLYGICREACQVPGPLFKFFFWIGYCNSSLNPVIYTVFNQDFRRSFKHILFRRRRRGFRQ

[6] = molecular target: T3, Mitogen-activated protein kinase kinase kinase 13 (Homo sapiens) (UniProt O43283); test: Selectivity interaction (KinomeScan (DiscoverX)) EUB0000540a MAP3K13; conditions: at 1 µM
T3 sequence (whole entry): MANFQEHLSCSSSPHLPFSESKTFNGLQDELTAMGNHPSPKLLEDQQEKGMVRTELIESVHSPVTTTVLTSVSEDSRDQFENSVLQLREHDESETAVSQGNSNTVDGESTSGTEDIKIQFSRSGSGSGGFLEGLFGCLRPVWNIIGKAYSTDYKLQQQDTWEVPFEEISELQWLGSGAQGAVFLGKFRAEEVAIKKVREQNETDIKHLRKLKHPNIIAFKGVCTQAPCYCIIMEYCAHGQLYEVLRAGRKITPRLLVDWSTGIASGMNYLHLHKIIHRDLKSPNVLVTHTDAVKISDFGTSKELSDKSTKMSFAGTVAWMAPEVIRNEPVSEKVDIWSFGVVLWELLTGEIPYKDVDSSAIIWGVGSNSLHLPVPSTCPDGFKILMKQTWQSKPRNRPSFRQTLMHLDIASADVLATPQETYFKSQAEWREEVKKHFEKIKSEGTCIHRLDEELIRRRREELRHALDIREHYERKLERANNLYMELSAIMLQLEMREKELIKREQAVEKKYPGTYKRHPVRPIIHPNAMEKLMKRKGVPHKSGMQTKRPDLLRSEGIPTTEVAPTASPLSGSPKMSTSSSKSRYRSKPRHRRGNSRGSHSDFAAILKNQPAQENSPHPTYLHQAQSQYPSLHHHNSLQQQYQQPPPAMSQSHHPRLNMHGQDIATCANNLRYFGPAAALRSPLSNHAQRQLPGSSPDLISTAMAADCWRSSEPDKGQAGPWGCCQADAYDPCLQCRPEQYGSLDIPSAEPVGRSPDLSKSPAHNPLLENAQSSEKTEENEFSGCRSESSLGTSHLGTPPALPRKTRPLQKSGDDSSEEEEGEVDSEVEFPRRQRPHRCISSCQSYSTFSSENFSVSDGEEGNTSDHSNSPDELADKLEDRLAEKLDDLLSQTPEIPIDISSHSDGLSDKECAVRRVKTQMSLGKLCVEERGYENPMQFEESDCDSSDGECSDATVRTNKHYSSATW

[7] = molecular target: Sigma non-opioid intracellular receptor 1 (Homo sapiens, UniProt Q99720); test: Selectivity interaction (GPCR panel (PDSP screen)) EUB0000540a SIGMAR1
[8] = molecular target: 5-hydroxytryptamine receptor 2B (Homo sapiens, UniProt P41595); test: Selectivity interaction (GPCR panel (PDSP screen)) EUB0000540a HTR2B
[9] = molecular target: Mitotic checkpoint serine/threonine-protein kinase BUB1 (Homo sapiens) (UniProt O43683); test: Selectivity interaction (GPCR panel (PDSP screen)) EUB0000540a BUB1; conditions: at 1 µM
[10] = molecular target: Serine/threonine-protein kinase WNK2 (Homo sapiens) (UniProt Q9Y3S1); test: Selectivity interaction (GPCR panel (PDSP screen)) EUB0000540a WNK2; conditions: at 1 µM
[11] = molecular target: 5-hydroxytryptamine receptor 2C (Homo sapiens, UniProt P28335); test: Selectivity interaction (GPCR panel (PDSP screen)) EUB0000540a HTR2C
[12] = molecular target: Sigma intracellular receptor 2 (Homo sapiens, UniProt Q5BJF2); test: Selectivity interaction (GPCR panel (PDSP screen)) EUB0000540a TMEM97
[13] = molecular target: 5-hydroxytryptamine receptor 2A (Homo sapiens, UniProt P28223); test: Selectivity interaction (GPCR panel (PDSP screen)) EUB0000540a HTR2A
[14] = molecular target: T4, Gamma-aminobutyric acid receptor subunit alpha-1 (Homo sapiens, UniProt P14867); test: Selectivity interaction (GPCR panel (PDSP screen)) EUB0000540a GABRA1
T4 sequence (P14867 whole entry): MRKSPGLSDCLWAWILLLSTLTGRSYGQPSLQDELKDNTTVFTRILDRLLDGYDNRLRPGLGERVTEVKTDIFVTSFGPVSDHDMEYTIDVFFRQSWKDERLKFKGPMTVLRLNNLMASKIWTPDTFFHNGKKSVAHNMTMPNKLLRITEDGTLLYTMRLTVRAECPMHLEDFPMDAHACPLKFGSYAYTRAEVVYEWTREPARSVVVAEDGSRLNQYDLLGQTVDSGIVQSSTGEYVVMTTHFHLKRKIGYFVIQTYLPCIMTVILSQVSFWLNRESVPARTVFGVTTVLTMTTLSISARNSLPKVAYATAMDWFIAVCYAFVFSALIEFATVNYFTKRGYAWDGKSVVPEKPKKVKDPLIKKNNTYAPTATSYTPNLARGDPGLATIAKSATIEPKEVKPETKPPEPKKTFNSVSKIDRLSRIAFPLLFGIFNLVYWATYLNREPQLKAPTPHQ

Chain of D(3) dopamine receptor (P35462 whole entry): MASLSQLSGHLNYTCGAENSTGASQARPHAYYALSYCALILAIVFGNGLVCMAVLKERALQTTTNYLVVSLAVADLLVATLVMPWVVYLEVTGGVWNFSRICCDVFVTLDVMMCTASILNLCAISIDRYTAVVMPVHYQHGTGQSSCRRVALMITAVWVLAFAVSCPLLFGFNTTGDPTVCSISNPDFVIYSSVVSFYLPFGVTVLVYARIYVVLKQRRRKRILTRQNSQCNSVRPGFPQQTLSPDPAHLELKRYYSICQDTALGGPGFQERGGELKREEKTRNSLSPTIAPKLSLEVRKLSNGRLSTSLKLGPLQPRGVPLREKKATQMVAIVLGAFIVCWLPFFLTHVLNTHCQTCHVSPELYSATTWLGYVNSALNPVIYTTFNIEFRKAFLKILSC
Chain of Mitotic checkpoint serine/threonine-protein kinase BUB1 (Homo sapiens) (O43683 whole entry, looked up): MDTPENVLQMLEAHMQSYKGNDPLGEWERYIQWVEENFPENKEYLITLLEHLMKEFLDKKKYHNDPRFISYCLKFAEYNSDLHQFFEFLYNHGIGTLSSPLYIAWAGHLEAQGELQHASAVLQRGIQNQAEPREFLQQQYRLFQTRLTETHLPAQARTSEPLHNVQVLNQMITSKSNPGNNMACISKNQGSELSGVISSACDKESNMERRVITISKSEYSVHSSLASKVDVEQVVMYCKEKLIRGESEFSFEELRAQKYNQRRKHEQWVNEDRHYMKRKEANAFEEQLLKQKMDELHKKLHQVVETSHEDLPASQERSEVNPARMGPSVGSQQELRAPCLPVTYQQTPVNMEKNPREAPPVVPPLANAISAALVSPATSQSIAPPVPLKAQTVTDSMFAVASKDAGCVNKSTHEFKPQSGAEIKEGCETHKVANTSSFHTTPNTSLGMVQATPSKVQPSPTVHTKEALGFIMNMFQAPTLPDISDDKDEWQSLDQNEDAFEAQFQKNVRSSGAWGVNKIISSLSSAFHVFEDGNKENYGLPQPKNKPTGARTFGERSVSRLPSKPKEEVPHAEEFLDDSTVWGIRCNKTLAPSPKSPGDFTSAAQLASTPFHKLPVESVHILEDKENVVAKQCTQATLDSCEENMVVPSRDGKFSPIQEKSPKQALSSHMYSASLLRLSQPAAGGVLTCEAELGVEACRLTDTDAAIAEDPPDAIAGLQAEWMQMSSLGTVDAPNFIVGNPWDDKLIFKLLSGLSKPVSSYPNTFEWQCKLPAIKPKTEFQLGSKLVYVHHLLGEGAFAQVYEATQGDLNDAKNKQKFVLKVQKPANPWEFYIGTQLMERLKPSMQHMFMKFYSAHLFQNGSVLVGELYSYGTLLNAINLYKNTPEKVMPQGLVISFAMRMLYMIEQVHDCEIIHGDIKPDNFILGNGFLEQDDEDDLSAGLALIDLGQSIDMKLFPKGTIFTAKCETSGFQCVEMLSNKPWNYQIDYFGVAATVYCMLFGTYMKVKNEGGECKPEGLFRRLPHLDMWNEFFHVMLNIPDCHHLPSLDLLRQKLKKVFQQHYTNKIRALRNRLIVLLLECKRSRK
Chain of 5-hydroxytryptamine receptor 2A (P28223 whole entry): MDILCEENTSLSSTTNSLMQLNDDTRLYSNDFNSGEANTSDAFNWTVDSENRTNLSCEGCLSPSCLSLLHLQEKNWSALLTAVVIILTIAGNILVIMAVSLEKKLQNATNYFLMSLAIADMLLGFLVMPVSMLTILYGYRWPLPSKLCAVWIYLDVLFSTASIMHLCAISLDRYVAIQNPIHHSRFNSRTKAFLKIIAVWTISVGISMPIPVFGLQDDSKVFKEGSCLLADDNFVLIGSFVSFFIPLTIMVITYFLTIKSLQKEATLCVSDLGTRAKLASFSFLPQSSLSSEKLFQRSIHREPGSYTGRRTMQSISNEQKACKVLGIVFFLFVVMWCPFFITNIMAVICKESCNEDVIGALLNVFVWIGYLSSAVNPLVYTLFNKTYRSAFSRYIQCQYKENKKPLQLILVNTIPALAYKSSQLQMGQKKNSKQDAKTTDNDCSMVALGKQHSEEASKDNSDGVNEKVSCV
Chain of Sigma non-opioid intracellular receptor 1 (Q99720 whole entry): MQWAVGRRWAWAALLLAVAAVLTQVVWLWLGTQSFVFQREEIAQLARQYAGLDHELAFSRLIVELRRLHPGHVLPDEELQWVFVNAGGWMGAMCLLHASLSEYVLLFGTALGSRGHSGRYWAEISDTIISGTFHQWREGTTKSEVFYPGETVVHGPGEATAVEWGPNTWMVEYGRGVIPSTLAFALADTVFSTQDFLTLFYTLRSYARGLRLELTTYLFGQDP
Chain of Serine/threonine-protein kinase WNK2 (Homo sapiens) (Q9Y3S1 whole entry): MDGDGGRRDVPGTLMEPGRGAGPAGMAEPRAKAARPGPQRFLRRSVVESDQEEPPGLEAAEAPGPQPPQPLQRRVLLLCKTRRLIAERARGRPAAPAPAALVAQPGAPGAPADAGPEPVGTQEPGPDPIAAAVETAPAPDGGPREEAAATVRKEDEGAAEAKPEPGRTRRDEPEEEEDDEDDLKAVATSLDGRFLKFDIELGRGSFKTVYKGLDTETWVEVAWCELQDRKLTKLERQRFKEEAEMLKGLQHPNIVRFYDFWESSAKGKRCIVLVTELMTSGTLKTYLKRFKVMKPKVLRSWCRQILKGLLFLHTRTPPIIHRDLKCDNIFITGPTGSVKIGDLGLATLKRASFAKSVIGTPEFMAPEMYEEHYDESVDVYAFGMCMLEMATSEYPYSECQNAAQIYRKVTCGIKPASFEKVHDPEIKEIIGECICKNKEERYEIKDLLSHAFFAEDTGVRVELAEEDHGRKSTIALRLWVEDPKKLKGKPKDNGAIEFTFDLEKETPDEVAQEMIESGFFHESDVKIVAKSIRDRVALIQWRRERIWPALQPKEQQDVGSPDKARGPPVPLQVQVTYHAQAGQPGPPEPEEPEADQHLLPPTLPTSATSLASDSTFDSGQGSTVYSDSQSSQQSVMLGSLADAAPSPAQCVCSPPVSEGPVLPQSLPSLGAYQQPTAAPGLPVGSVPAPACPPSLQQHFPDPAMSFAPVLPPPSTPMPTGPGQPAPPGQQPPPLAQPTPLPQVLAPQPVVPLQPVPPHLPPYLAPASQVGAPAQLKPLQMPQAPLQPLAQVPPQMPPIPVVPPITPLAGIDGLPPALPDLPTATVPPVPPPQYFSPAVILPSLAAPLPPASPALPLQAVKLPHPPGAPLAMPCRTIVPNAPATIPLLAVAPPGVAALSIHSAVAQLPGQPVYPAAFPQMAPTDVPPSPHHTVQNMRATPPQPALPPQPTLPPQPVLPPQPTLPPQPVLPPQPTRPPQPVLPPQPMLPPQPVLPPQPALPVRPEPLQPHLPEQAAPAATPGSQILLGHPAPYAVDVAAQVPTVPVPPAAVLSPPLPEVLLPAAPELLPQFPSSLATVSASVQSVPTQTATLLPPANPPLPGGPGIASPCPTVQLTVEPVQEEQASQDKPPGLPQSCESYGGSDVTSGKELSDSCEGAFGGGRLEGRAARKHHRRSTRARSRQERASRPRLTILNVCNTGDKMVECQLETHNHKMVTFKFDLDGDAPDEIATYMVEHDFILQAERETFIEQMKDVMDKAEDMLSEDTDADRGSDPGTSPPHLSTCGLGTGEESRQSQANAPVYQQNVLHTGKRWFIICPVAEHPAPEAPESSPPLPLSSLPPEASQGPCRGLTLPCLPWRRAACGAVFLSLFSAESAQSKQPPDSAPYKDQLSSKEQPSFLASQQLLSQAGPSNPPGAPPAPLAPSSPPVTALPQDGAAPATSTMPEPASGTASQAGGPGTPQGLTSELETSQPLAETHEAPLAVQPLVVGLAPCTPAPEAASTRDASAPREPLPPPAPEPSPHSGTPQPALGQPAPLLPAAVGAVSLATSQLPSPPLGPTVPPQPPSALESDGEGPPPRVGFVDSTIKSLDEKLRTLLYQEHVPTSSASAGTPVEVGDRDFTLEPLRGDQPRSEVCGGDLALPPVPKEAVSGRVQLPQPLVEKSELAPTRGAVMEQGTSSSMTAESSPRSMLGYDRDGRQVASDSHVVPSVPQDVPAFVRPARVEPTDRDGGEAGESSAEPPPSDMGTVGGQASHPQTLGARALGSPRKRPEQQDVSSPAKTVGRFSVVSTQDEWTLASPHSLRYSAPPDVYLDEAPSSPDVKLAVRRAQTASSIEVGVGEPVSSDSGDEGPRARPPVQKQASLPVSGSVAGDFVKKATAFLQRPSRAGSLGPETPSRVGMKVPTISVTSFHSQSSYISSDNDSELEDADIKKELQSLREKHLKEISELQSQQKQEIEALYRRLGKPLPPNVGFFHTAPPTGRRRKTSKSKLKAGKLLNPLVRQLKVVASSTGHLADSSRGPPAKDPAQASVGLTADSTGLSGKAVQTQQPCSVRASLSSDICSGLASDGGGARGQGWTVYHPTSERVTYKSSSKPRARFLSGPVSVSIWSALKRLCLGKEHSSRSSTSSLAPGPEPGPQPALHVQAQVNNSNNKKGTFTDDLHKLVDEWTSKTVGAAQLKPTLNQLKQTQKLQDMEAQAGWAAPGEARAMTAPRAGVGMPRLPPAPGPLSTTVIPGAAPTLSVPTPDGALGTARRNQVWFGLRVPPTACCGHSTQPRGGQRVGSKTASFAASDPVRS
Chain of Sigma intracellular receptor 2 (Q5BJF2 whole entry): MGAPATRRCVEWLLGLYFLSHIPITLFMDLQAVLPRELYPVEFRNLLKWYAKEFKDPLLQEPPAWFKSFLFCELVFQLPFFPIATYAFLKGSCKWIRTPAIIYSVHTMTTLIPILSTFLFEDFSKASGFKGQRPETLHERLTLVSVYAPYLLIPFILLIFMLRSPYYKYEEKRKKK

% of control [1] | IC50 [2] | % of control [3] | % of inhibition (D(3) dopamine receptor) | % of control [4] | Ki [5] | % of control [6] | Ki [7] | Ki [8] | % of control [9] | % of control [10] | Ki [11] | Ki [12] | Ki [13] | Ki [14] | Compound
42% | 3.5 µM | 35% | 33% | 28% | – | – | – | – | – | – | – | – | – | – | COc1ccc2cc(OCC3(C(=O)O)CN(C(=O)c4ccc(F)cc4)C3)ccc2c1 [PF-04418948]
– | – | – | – | – | 596 nM | 0% | 472 nM | 1340 nM | 1.4% | 0% | 1660 nM | 437 nM | 249 nM | 1140 nM | O=C(Nc1cccnn1)N1CC(C/C=C/c2cncc(Oc3ccc(C(F)(F)F)cn3)n2)C1

From ChEMBL document CHEMBL5212743, “Selectivity Literature for EUbOPEN Chemogenomics Library wave 3” (2023)
